Measurements: patent US7772245B2, “Inhibitors of histone deacetylase” (Miikana Therapeutics, Inc., priority 2005, dated 2010)

What was measured:
HDAC = test: In vitro fluorescent histone deacetylase assay (Biomol HDAC fluorescent activity kit, HeLa cell nuclear extract); assay type: biochemical; details: 100 μM compound; HeLa cell nuclear extract as source of HDAC activity; 50 μM substrate, 10 min at room temperature
Procedure: Histone deacetylase (HDAC) activity assays were performed using the HDAC fluorescent activity assay/drug discovery kit (Biomol Research Laboratories, Plymouth Meeting, Pa.) essentially according to the manufacturer's instructions. The included HeLa cell nuclear extract, which contains a mosaic of HDAC enzymes and other nuclear factors, was used as the source of HDAC activity. The final substrate concentration in the assay mixture was 50 μM. The reaction was allowed to proceed for 10 min at room temperature before stopping the reaction. Test compounds were prepared as 20 mM stock solutions in DMSO (Molecular Biology grade, Sigma-Aldrich Co., St. Louis, Mo.) and stored at −70° C. Serial dilutions of test compounds were prepared in assay buffer immediately prior to testing. DMSO was determined in a separate trial to have no significant effect on the activity of this assay at concentrations up to 5%; the final DMSO concentration in the wells was no more than 2% and therefore DMSO effects were safely neglected. Assays were performed in white polystyrene 96-well half-area assay plates (Corning, Corning, N.Y.) and measured on a Wallace 1420 fluorescent plate reader (Wallac Oy, Turku, Finland) with an excitation wavelength of 355 nm, an emission wavelength of 460 nm, and a 1 sec signal averaging time.

HCT116 cells = test: Whole cell cytotoxicity assay: Sulforhodamine B; assay type: cell-based; details: Homo sapiens, HCT-116; 100 μM compound; 48 hours incubation with drug; Sulforhodamine B staining; read-out: % Inhibition of HCT116 cell growth @ 100 μM
Procedure: [The source words this procedure for another cell line and reports this cell line under the same test.] The following procedure can be found on the Developmental Therapeutics Program NCl/NIH web site at http://dtp.nci.nih.gov/brancehes/btb/ivclsp.html. • 1. Human tumor cell lines of HT29, A549 and MCF7 are grown in DMEM containing 10% fetal bovine serum and 2 mM L-glutamine. Cells are plated in a 96 well plate at a density of 5000 cells per well in 100 μL of growth medium and incubated at 37° C., 5% CO2, for 24 hours prior to the addition of experimental compounds. • 2. Experimental drugs are solubilized in DMSO for a final concentration of 20 mM immediately prior to use. Drugs are further diluted in growth media for a total of nine drug concentrations and a growth control. At the 24 hour time point, one plate of cells is fixed in situ with TCA as a measurement of the cell population at time zero, or the time of drug addition. • 3. The plates are further incubated with drug for an additional 48 hours. • 4. The cells are fixed in situ by gently aspirating off the culture media and then adding 50 μL of ice cold 10% TCA per well and incubated at 4° C. for 60 minutes. The plates are washed with tap water five times and allowed to air dry for 5 minute. • 5. 50 μL of a 0.4% (w/v) Sulforhodamine B solution in 1% (v/v) acetic acid is added per well and incubated for 30 minutes at room temperature. • 6. Following staining, plates are washed five times with 1% acetic acid to remove any unbound dye and then allowed to air dry for 5 minutes. • 7. Stain is solubilized with 100 μL of 10 mM Tris pH 10.5 per well and placed on an orbital rotator for 5 minutes. • 8. Absorbance is read at 570 nm.

SMILES	% Inhibition of HDAC @ 100 μM (HDAC) [%]	inhibition at 100 µM (HCT116 cells) [%]
O=C(/C=C/c1ccc(N2CCc3c([nH]c4ccccc34)C2)cc1)NO [Example 22, (2E)-N-hydroxy-3-[4-(1,3,4,9-tetrahydro-2H-b-carbolin-2-yl)phenyl]acrylamide]	98.2	98.2
O=C(NO)c1cnc(N2CCc3c(n(CCN4CCCC4)c4ccccc34)C2)nc1 [Example 23, N-hydroxy-2-{9-[2-pyrrolidin-1-ylethyl]-1,3,4,9-tetrahydro-2H-b-carbolin-2-yl}pyrimidine-5-carboxamide]	99.3	98.1
O=C(NO)c1cnc(N2CCc3c(n(CCN4CCCCC4)c4ccccc34)C2)nc1 [Example 24, N-hydroxy-2-[9-(2-piperidin-1-ylethyl)-1,3,4,9-tetrahydro-2H-b-carbolin-2-yl]pyrimidine-5-carboxamide]	99	98.9
O=C(NO)c1cnc(N2CCc3c(n(CCN4CCOCC4)c4ccccc34)C2)nc1 [Example 25, N-hydroxy-2-[9-(2-morpholin-4-ylethyl)-1,3,4,9-tetrahydro-2H-b-carbolin-2-yl]pyrimidine-5-carboxamide]	98	94
O=C(NO)c1cnc(N2CCc3c(n(S(=O)(=O)c4ccccc4)c4ccccc34)C2)nc1 [Example 26, N-hydroxy-2-[9-(phenylsulfonyl)-1,3,4,9-tetrahydro-2H-b-carbolin-2-yl]pyrimidine-5-carboxamide]	98.9	99
Cn1c2c(c3ccccc31)CCN(c1ncc(C(=O)NO)cn1)C2 [Example 27, N-hydroxy-2-(9-methyl-1,3,4,9-tetrahydro-2H-b-carbolin-2-yl)pyrimidine-5-carboxamide]	98.3	98.9
O=C(NO)c1cnc(N2CCc3c(n(Cc4ccccc4)c4ccccc34)C2)nc1 [Example 28, N-hydroxy-2-(9-benzyl-1,3,4,9-tetrahydro-2H-b-carbolin-2-yl)pyrimidine-5-carboxamide]	95.2	98.7
CC(=O)n1c2c(c3ccccc31)CCN(c1ncc(C(=O)NO)cn1)C2 [Example 29, 2-(9-acetyl-1,3,4,9-tetrahydro-2H-b-carbolin-2-yl)-N-hydroxypyrimidine-5-carboxamide]	99.8	98
O=C(NO)c1cnc(N2CCc3c(n(CN4CCCC4)c4ccccc34)C2)nc1 [Example 30, N-hydroxy-2-{9-[2-pyrrolidin-1-ylmethyl]-1,3,4,9-tetrahydro-2H-b-carbolin-2-yl}pyrimidine-5-carboxamide]	98.1	96.8
COc1ccc2c(c1)CN(c1ncc(C(=O)NO)cn1)CC2 [Example 31, 2-(7-methoxy-3,4,dihydroisoquinolin-2(1H)-yl)-N-hydroxypyrimidine-5-carboxamide]	100	99.5
O=C(NO)c1cnc(N2Cc3cccc4cccc(c34)C2)nc1 [Example 32, 2-(1H-benzo[de]isoquinolin-2(3H)-yl)-N-hydroxypyrimidine-5-carboxamide]	96.6	94.6
Cc1cc2c3c([nH]c2cc1Cl)CCN(c1ncc(C(=O)NO)cn1)C3 [Example 34, N-hydroxy-2-(7-chloro-8-methyl-1,3,4,5-tetrahydro-2H-pyrido[4,3-b]indol-2-yl)pyrimidine-5-carboxamide]	99.1	99.3
O=C(NO)c1cnc(N2CCc3[nH]c4cc(F)ccc4c3C2)nc1 [Example 35, N-hydroxy-2-(7-fluoro-1,3,4,5-tetrahydro-2H-pyrido[4,3-b]indol-2-yl)pyrimidine-5-carboxamide]	99.9	97.3
Cc1ccc2c3c([nH]c2c1)CCN(c1ncc(C(=O)NO)cn1)C3 [Example 36, N-hydroxy-2-(7-methyl-1,3,4,5-tetrahydro-2H-pyrido[4,3-b]indol-2-yl)pyrimidine-5-carboxamide]	99.8	98.3
O=C(NO)c1cnc(N2CCc3[nH]c4ccc([N+](=O)[O-])cc4c3C2)nc1 [Example 37, N-hydroxy-2-(8-nitro-1,3,4,5-tetrahydro-2H-pyrido[4,3-b]indol-2-yl)pyrimidine-5-carboxamide]	99.9	97.1
CC(C)c1ccc2[nH]c3c(c2c1)CN(c1ncc(C(=O)NO)cn1)CC3 [Example 38, N-hydroxy-2-{8-isopropyl-1,3,4,5-tetrahydro-2H-pyrido[4,3-b]indol-2-yl}pyrimidine-5-carboxamide]	99.8	99.5
CC(C)(C)c1ccc2[nH]c3c(c2c1)CN(c1ncc(C(=O)NO)cn1)CC3 [Example 39, N-hydroxy-2-{8-tert-butyl-1,3,4,5-tetrahydro-2H-pyrido[4,3-b]indol-2-yl}pyrimidine-5-carboxamide]	98.8	99.4
COc1ccc(-c2ccc3[nH]c4c(c3c2)CN(c2ncc(C(=O)NO)cn2)CC4)cc1 [Example 40, N-hydroxy-2-{8-[4-methoxyphenyl]-1,3,4,5-tetrahydro-2H-pyrido[4,3-b]indol-2-yl}pyrimidine-5-carboxamide]	99.8	98.3
Cc1ccc(-c2ccc3[nH]c4c(c3c2)CN(c2ncc(C(=O)NO)cn2)CC4)cc1 [Example 41, N-hydroxy-2-{8-[4-methylphenyl]-1,3,4,5-tetrahydro-2H-pyrido[4,3-b]indol-2-yl}pyrimidine-5-carboxamide]	99.6	98.7
O=C(NO)c1cnc(N2CCc3[nH]c4ccc(-c5cccc(CO)c5)cc4c3C2)nc1 [Example 43, N-hydroxy-2-{8-[3-(hydroxymethyl)phenyl]-1,3,4,5-tetrahydro-2H-pyrido[4,3-b]indol-2-yl}pyrimidine-5-carboxamide]	100	98.7
O=C(NO)c1cnc(N2CCc3[nH]c4ccc(-c5cccc(F)c5)cc4c3C2)nc1 [Example 44, N-hydroxy-2-{8-[3-fluorophenyl]-1,3,4,5-tetrahydro-2H-pyrido[4,3-b]indol-2-yl}pyrimidine-5-carboxamide]	99.9	97.6
O=C(NO)c1cnc(N2CCc3[nH]c4ccc(-c5ccc(F)cc5)cc4c3C2)nc1 [Example 45, N-hydroxy-2-{8-[4-fluorophenyl]-1,3,4,5-tetrahydro-2H-pyrido[4,3-b]indol-2-yl}pyrimidine-5-carboxamide]	99.9	98.9
O=C(NO)c1cnc(N2CCc3[nH]c4ccc(-c5ccco5)cc4c3C2)nc1 [Example 46, N-hydroxy-2-{8-(fur-2-yl)-1,3,4,5-tetrahydro-2H-pyrido[4,3-b]indol-2-yl}pyrimidine-5-carboxamide]	99.8	98.6
CN(C)c1ccc(-c2ccc3[nH]c4c(c3c2)CN(c2ncc(C(=O)NO)cn2)CC4)cc1 [Example 48, N-hydroxy-2-{8-[4-dimethylaminophenyl]-1,3,4,5-tetrahydro-2H-pyrido[4,3-b]indol-2-yl}pyrimidine-5-carboxamide]	99.7	97.8
CSc1cccc(-c2ccc3[nH]c4c(c3c2)CN(c2ncc(C(=O)NO)cn2)CC4)c1 [Example 49, N-hydroxy-2-{8-[3-(methylthio)phenyl]-1,3,4,5-tetrahydro-2H-pyrido[4,3-b]indol-2-yl}pyrimidine-5-carboxamide]	99.9	99.3
CC(=O)Nc1ccc(-c2ccc3[nH]c4c(c3c2)CN(c2ncc(C(=O)NO)cn2)CC4)cc1 [Example 50, N-hydroxy-2-{8-[4-(N-acetamido)phenyl]-1,3,4,5-tetrahydro-2H-pyrido[4,3-b]indol-2-yl}pyrimidine-5-carboxamide]	99.7	89.1
